The values that follow come from ChEMBL document CHEMBL4387766, “Synthesis and biological evaluation of PSMA-targeting paclitaxel conjugates” (Bioorg Med Chem Lett, 2019).

The term CC50 denotes the concentration giving 50% cytotoxicity.

Molecules are shown by their SMILES.

One series deals with CWR22R. As to the kind of experiment: Cytotoxicity against PSMA-positive human 22Rv1 cells assessed as reduction in cell viability measured after 72 hrs by MTT assay. The class given is functional. The following applies: 22Rv1, 72 h. (In general: Tetrazolium assays rely on reduction of a dye to a coloured formazan, in cell work by metabolically active cells.)
A short description of series [1]: Selectivity ratio of CC50 for human VA13 cells to CC50 for PSMA-positive human 22Rv1 cells.
Series [2] in a line: Cytotoxicity against HEK293T cells assessed as reduction in cell viability measured after 72 hrs by MTT assay. In kind it is cell-based, HEK-293T. The following applies: human.
Series [3] is described as follows: Cytotoxicity against human A549 cells assessed as reduction in cell viability measured after 72 hrs by MTT assay. The class given is cell-based.
Series [4] is described as follows: Selectivity ratio of CC50 for human PSMA-deficient PC3 cells to CC50 for PSMA-positive human LNCAP cells. In kind it is functional.
A short description of series [5]: Selectivity ratio of CC50 for human VA13 cells to CC50 for PSMA-positive human LNCAP cells.
The test system of the next series is LNCaP. As to the kind of experiment: Cytotoxicity against PSMA-positive human LNCAP cells assessed as reduction in cell viability measured after 72 hrs by MTT assay. In kind it is functional.
Another series concerns PC-3. In words: Cytotoxicity against PSMA-deficient human PC3 cells assessed as reduction in cell viability measured after 72 hrs by MTT assay. In kind it is functional. The following applies: PC-3, 72 h.
Series [6] is described as follows: Cytotoxicity against human MCF7 cells assessed as reduction in cell viability measured after 72 hrs by MTT assay. In kind it is cell-based.
Series [7] can be described thus: Selectivity ratio of CC50 for human PSMA-deficient PC3 cells to CC50 for PSMA-positive human 22Rv1 cells. The class given is functional.
Series [8] is described as follows: Cytotoxicity against human VA13 cells assessed as reduction in cell viability measured after 72 hrs by MTT assay. The following applies: WI-38 VA13 cells. In kind it is cell-based.

In the case of `CC(=O)O[C@H]1C(=O)[C@]2(C)[C@@H](OC(=O)CCCc3cn(CCCCCCCCCCC(=O)NCCCC[C@H](NC(=O)N[C@@H](CCC(=O)O)C(=O)O)C(=O)O)nn3)C[C@H]3OC[C@@]3(OC(C)=O)[C@H]2[C@H](OC(=O)c2ccccc2)[C@]2(O)C[C@H](OC(=O)[C@H](O)[C@@H](NC(=O)c3ccccc3)c3ccccc3)C(C)=C1C2(C)C`, the CC50 came to 2.64 µM with CWR22R, 1.01 µM in the series with LNCaP and 2.92 µM with PC-3. For the same compound, the Selectivity ratio in series [1] was determined as 0.59; in [4], 1.43; in [5] it was 0.53; in [7] it was 1.61. Moreover, the CC50 at 72 h came out at 0.73 µM in [2], 0.632 µM in series [3], 1.21 µM in series [6] and 1.16 µM in series [8].
On to `CC(=O)O[C@H]1C(=O)[C@@]2(C)[C@H]([C@H](OC(=O)c3ccccc3)[C@]3(O)C[C@H](OC(=O)[C@H](OC(=O)CCCc4cn(CCCCCNC(=O)NCCCC[C@H](NC(=O)N[C@@H](CCC(=O)O)C(=O)O)C(=O)O)nn4)[C@@H](NC(=O)c4ccccc4)c4ccccc4)C(C)=C1C3(C)C)[C@]1(OC(C)=O)CO[C@@H]1C[C@@H]2O`, for which the CC50 worked out at 0.034 µM in the series on CWR22R, 0.013 µM with LNCaP and 0.025 µM with PC-3. Also, the Selectivity ratio in series [1] turned out to be 0.61; in series [4], 0.99; in [5], 0.56; in series [7], 1.09. Moreover, the CC50 at 72 h came out at 0.014 µM in series [2], 0.056 µM in series [6] and 0.037 µM in series [8].
`CC(=O)O[C@H]1C(=O)[C@@]2(C)[C@H]([C@H](OC(=O)c3ccccc3)[C@]3(O)C[C@H](OC(=O)[C@H](OC(=O)CCCc4cn(CCCCCCCCCCNC(=O)NCCCC[C@H](NC(=O)N[C@@H](CCC(=O)O)C(=O)O)C(=O)O)nn4)[C@@H](NC(=O)c4ccccc4)c4ccccc4)C(C)=C1C3(C)C)[C@]1(OC(C)=O)CO[C@@H]1C[C@@H]2O`: the results for the cytotoxic concentration (CC50) in the series on CWR22R, in the series on LNCaP and in the series with PC-3 were 0.132 µM, 0.06 µM and 0.075 µM, respectively. The Selectivity ratio in [1] came out at 0.93; in series [4], 0.63; in series [5], 0.71; in [7] it was 0.83. Further, the CC50 at 72 h in [2] came to 0.042 µM; in [3], 0.005 µM; in series [6], 0.162 µM; in series [8] it was 0.101 µM.
For the compound `CC(=O)O[C@H]1C(=O)[C@@]2(C)[C@H]([C@H](OC(=O)c3ccccc3)[C@]3(O)C[C@H](OC(=O)[C@H](OC(=O)CCCc4cn(CCCCCCCCCCC(=O)N(CCCC[C@H](NC(=O)N[C@@H](CCC(=O)O)C(=O)O)C(=O)O)Cc5ccc(F)cc5)nn4)[C@@H](NC(=O)c4ccccc4)c4ccccc4)C(C)=C1C3(C)C)[C@]1(OC(C)=O)CO[C@@H]1C[C@@H]2O`, the CC50 with CWR22R worked out at 1.15 µM; in the series with LNCaP it was 0.467 µM; with PC-3, 0.479 µM. The Selectivity ratio is 0.65 in series [1], 0.51 in [4], 0.54 in series [5] and 0.62 in [7]. The half-maximal cytotoxic concentration (CC50) at 72 h was 0.041 µM in series [2], less than 0.03 µM in series [3], 0.066 µM in [6] and 0.027 µM in series [8].
Consider `CC(=O)O[C@H]1C(=O)[C@@]2(C)[C@H]([C@H](OC(=O)c3ccccc3)[C@]3(O)C[C@H](OC(=O)[C@H](OC(=O)CCCc4cn(CCCCCCCCCCC(=O)N(CCCC[C@H](NC(=O)N[C@@H](CCC(=O)O)C(=O)O)C(=O)O)Cc5ccc(Br)cc5)nn4)[C@@H](NC(=O)c4ccccc4)c4ccccc4)C(C)=C1C3(C)C)[C@]1(OC(C)=O)CO[C@@H]1C[C@@H]2O`, for which the CC50 in the series on CWR22R stood at 0.053 µM; in the series on LNCaP, 0.067 µM; with PC-3 it was 0.025 µM. For the same compound, the Selectivity ratio is reported as 1.46 in [1], 0.18 in [4], 0.38 in [5] and 0.7 in series [7]. Also, the 50% cytotoxic concentration (CC50) at 72 h in [2] is less than 0.03 µM; in [3] it was less than 0.03 µM; in series [6], 0.034 µM; in [8], less than 0.03 µM.
Take `CC(=O)O[C@H]1C(=O)[C@@]2(C)[C@H]([C@H](OC(=O)c3ccccc3)[C@]3(O)C[C@H](OC(=O)[C@H](OC(=O)CCCc4cn(CCCCCC(=O)N(CCCC[C@H](NC(=O)N[C@@H](CCC(=O)O)C(=O)O)C(=O)O)Cc5ccc(Cl)cc5)nn4)[C@@H](NC(=O)c4ccccc4)c4ccccc4)C(C)=C1C3(C)C)[C@]1(OC(C)=O)CO[C@@H]1C[C@@H]2O`: the CC50 in the series with CWR22R came out at 1.67 µM; in the series on LNCaP, 1.48 µM; in the series with PC-3 it was 1.03 µM. The Selectivity ratio was determined as 0.7 in [1], 0.34 in series [4], 0.26 in series [5] and 0.91 in series [7]. For the same compound, the CC50 at 72 h in series [2] is 0.04 µM; in [3], less than 0.03 µM; in series [6] it was 0.078 µM; in series [8] it was 0.048 µM.
Take `CC(=O)O[C@H]1C(=O)[C@@]2(C)[C@H]([C@H](OC(=O)c3ccccc3)[C@]3(O)C[C@H](OC(=O)[C@H](OC(=O)CCCc4cn(CCCCCC(=O)N(CCCC[C@H](NC(=O)N[C@@H](CCC(=O)O)C(=O)O)C(=O)O)Cc5ccc(Br)cc5)nn4)[C@@H](NC(=O)c4ccccc4)c4ccccc4)C(C)=C1C3(C)C)[C@]1(OC(C)=O)CO[C@@H]1C[C@@H]2O`: the half-maximal cytotoxic concentration (CC50) with CWR22R turned out to be 1.13 µM; in the series with LNCaP it was 0.51 µM; in the series with PC-3, 0.876 µM. Further, the Selectivity ratio in series [1] was 0.45; in series [4], 0.85; in series [5], 0.33; in series [7] it was 1.15. The CC50 at 72 h in [2] was 0.038 µM; in series [3], less than 0.03 µM; in [6] it was 0.094 µM; in [8], 0.045 µM.
`CC(=O)O[C@H]1C(=O)[C@@]2(C)[C@H]([C@H](OC(=O)c3ccccc3)[C@]3(O)C[C@H](OC(=O)[C@H](OC(=O)CCCc4cn(CCCCCCCCCCC(=O)NCCCC[C@H](NC(=O)N[C@@H](CCC(=O)O)C(=O)O)C(=O)O)nn4)[C@@H](NC(=O)c4ccccc4)c4ccccc4)C(C)=C1C3(C)C)[C@]1(OC(C)=O)CO[C@@H]1C[C@@H]2O`: the results for the cytotoxic concentration (CC50) with CWR22R, with LNCaP and in the series with PC-3 were 1.01 µM, 0.835 µM and 1.23 µM, respectively. Besides, the Selectivity ratio in [1] was found to be 0.85; in [4], 0.99; in [5], 0.7; in series [7], 1.2. Moreover, the CC50 at 72 h in series [2] is 0.294 µM; in series [3], 0.02 µM; in series [6], 0.189 µM; in [8], 0.066 µM.
Consider `CC(=O)O[C@H]1C(=O)[C@@]2(C)[C@H]([C@H](OC(=O)c3ccccc3)[C@]3(O)C[C@H](OC(=O)[C@H](OC(=O)CCCc4cn(CCCCCC(=O)N(CCCC[C@H](NC(=O)N[C@@H](CCC(=O)O)C(=O)O)C(=O)O)Cc5ccc(F)cc5)nn4)[C@@H](NC(=O)c4ccccc4)c4ccccc4)C(C)=C1C3(C)C)[C@]1(OC(C)=O)CO[C@@H]1C[C@@H]2O`, for which the CC50 is 1.31 µM with CWR22R, 0.365 µM in the series on LNCaP and 0.74 µM in the series with PC-3. Besides, the Selectivity ratio is 0.48 in series [1], 1.01 in [4], 0.59 in series [5] and 0.82 in series [7]. The 50% cytotoxic concentration (CC50) at 72 h in series [2] is less than 0.03 µM; in series [3] it was less than 0.03 µM; in [6], 0.049 µM; in series [8], less than 0.03 µM.
Turning to `CC(=O)O[C@H]1C(=O)[C@@]2(C)[C@H]([C@H](OC(=O)c3ccccc3)[C@]3(O)C[C@H](OC(=O)[C@H](OC(=O)CCCc4cn(CCCCCCCCCCC(=O)N(CCCC[C@H](NC(=O)N[C@@H](CCC(=O)O)C(=O)O)C(=O)O)Cc5ccc(Cl)cc5)nn4)[C@@H](NC(=O)c4ccccc4)c4ccccc4)C(C)=C1C3(C)C)[C@]1(OC(C)=O)CO[C@@H]1C[C@@H]2O`, the CC50 with CWR22R is 0.12 µM; in the series on LNCaP it was 0.044 µM; in the series with PC-3 it was 0.02 µM. In addition, the Selectivity ratio in series [1] came to 0.47; in [4] it was 0.22; in [5], 0.43; in series [7] it was 0.24. For the same compound, the CC50 at 72 h in series [2] was 0.023 µM; in [3] it was less than 0.03 µM; in series [6], 0.0565 µM; in series [8], 0.024 µM.
Regarding `CC(=O)O[C@H]1C(=O)[C@@]2(C)[C@H]([C@H](OC(=O)c3ccccc3)[C@]3(O)C[C@H](OC(=O)[C@H](OC(=O)CCCc4cn(CCCCCC(=O)N(CCCC[C@H](NC(=O)N[C@@H](CCC(=O)O)C(=O)O)C(=O)O)Cc5ccc(O)cc5)nn4)[C@@H](NC(=O)c4ccccc4)c4ccccc4)C(C)=C1C3(C)C)[C@]1(OC(C)=O)CO[C@@H]1C[C@@H]2O`, the values for the CC50 in the series on CWR22R, in the series with LNCaP and in the series on PC-3 were 0.061 µM, 0.043 µM and 0.09 µM, respectively. Moreover, the Selectivity ratio in series [1] worked out at 0.78; in series [4], 1.04; in [5] it was 0.37; in series [7], 2.19. For the same compound, the cytotoxic concentration (CC50) at 72 h in series [2] was 0.023 µM; in series [3] it was 0.02 µM; in series [6] it was 0.169 µM; in series [8] it was 0.065 µM.
